For series [1], the system named is tonic convulsions after i.c.v. administration of NMDA. Description: Anti-convulsion test (NMDA i.c.v.). The series is classed as in vivo, mice. The conditions noted are these: 20 min before NMDA 5 nmol i.c.v. How it is done:
Twenty minutes after intravenous administration of the test compound (1 to 10 mg/kg) into each of ten mice tested, NMDA (5 nmol) was administered intracerebroventricularly (i.c.v.). […] The hydrochloride [C-4] at 10 mg/kg i.v. protected 90% of mice from tonic convulsions.

The target of series [2] is T1, glycine binding site of the NMDA receptor (rat brain synaptic membrane) (Rattus norvegicus, UniProt P35439).
T1 construct: A crude rat brain synaptic membrane preparation; from tissue; host or cells: rat brain synaptic membranes (Triton X-100 treated)
In words: [3H]-DCKA binding test. Conditions: 10 nM [3H]-DCKA, 2° C., 10 min, pH 7.4; read-out: IC50, inhibition of [3H]-DCKA binding. The method, then: A crude rat brain synaptic membrane preparation was washed three time with 50 mM Tris acetate buffer (pH 7.4) and centrifuged at 50,000×g for 30 min. The pellets obtained were suspended in 0.32M sucrose solution and stored at −80° C. For binding studies, the frozen suspension was thawed, treated with 0.08-0.10% triton X-100 at 2° C. for 10 min. The membrane suspension was washed twice and centrifuged at 50,000×g for 30 min. The synaptic membrane thus prepared (ca. 100 μg of protein) was incubated with 10 nM [^3H]-5,7-dichlorokynurenic acid (DCKA) and the test compound (10 to 0.1 ng/mL) at 2° C. for 10 min in 50 mM Tris acetate buffer (pH 7.4). The incubation was terminated by suction filtration using Whatman GF/B glass filter. The radioactivity bound to the membrane on the filter was measured by scintillation counting. Non-specific binding was calculated by the radioactivity measured under the incubations in the presence cf 0.1 mM glycine.

The nature of series [3]: Characteristic moisture absorption (Vapor Sorption Analyzer). In kind it is physicochemical. The conditions noted are these: 25° C.; for Water taken up by the dehydrated sample: 0% R.H. to 95% R.H. and back to 10% R.H. The method, then:
Characteristic moisture absorption of the crystalline hydrochloride monohydrate [C-5] and the hydrochloride [C-4] which is in the form of an amorphous powder were measured with a Vapor Sorption Analyzer MB300G-3 (VTI Corporation).
In advance of measurement, the weighed samples put in the Analyzer were dehydrated at 60° C. under reduced pressure.

The format of series [4] is physicochemical. The conditions noted are these: for HPLC integrated intensity (%) under 75% R.H. / HPLC integrated intensity (%) in a sealed tube: 60° C. How it is done: The hydrochloride monohydrate [C-5] was kept at a temperature of 60° C., in a sealed tube or under 75% R.H.(relative humidity) for 4 weeks. Thereafter, the remaining amount of the compound was assayed with high performance liquid chromatography (HPLC).

Structures can show the parent of a compound that is named as a salt. Where two headings read alike, the source gives them in different places.

The results in this text go back to patent publication US6495587B1, “Tricyclic indole-2-carboxylic acid compound used as NMDA receptor antagonist” (Sumitomo Pharmaceuticals Company, Limited, priority 1999, dated 2002).

For `C[C@@H](Oc1cc(CN)ccc1NC(=O)C[C@@H]1CCc2cc(Cl)cc3[nH]c(C(=O)O)c1c23)C(=O)O` [C-4, (3S)-7-Chloro-3-(2-((1R)-1-carboxyethoxy)-4-aminomethylphenyl)aminocarbonylmethyl-1,3,4,5-tetrahydrobenz[c.d]indole-2-carboxylic Acid Hydrochloride], the “Mice protected from tonic convulsions” value in series [1] (10 mg/kg i.v., ten mice) was found to be 90%. Also, the ED50 in series [1] (Mus musculus, iv, mice, read-out: ED50, protection from tonic convulsions) was found to be 2.3 mg/kg. Further, in series [2], the IC50 worked out at 1.4 nM. Also, the “Water taken up by the dehydrated sample” value in series [3] is listed as “more than 2.5 molecular equivalents of water”.

For `C[C@@H](Oc1cc(CN)ccc1NC(=O)C[C@@H]1CCc2cc(Cl)cc3[nH]c(C(=O)O)c1c23)C(=O)O.Cl.O` [C-5], the “Increase of impurities or degradation products in HPLC charts” value in series [4] was “did not show any increase of impurities or degradation products”. The “HPLC integrated intensity (%) under 75% R.H.” value stood at 99.2% in series [4] (2 weeks), 99.5% in series [4] (4 weeks) and 99.3% in series [4] (Initial). Also, the “HPLC integrated intensity (%) in a sealed tube” value was found to be 99.3% in series [4] (2 weeks), 99.6% in series [4] (4 weeks) and 99.3% in series [4] (Initial). Besides, the “Water taken up by the dehydrated sample” value in series [3] is recorded as “one”. Moreover, in series [3] (moist atmosphere), the “Water taken up, theoretical weight change for one molecular equivalent” value was determined as 3.45 wt %.

Regarding `C[C@H](Oc1cc(CN)ccc1NC(=O)C[C@@H]1CCc2cc(Cl)cc3[nH]c(C(=O)O)c1c23)C(=O)O` [D-2, (3S)-7-Chloro-3-(2-((1S)-1-carboxyethoxy)-4-aminomethylphenyl)aminocarbonylmethyl-1,3,4,5-tetrahydrobenz[c.d]indole-2-carboxylic Acid Hydrochloride, reference compound], the IC50 in series [2] came to 16 nM.

The term ED50 denotes the dose that gives a 50% effect, or the effect in half of the subjects. A word on the IC50: it is the concentration needed to halve the response being measured.
